Measured values published in the supplement of paper PMC10307832.

compound: Cc1cc([C@@H](C)Nc2ccccc2C(=O)O)c2nc(N3CCOCC3)cc(=O)n2c1 [AZD6482] + CCNC(=O)c1noc(-c2cc(C(C)C)c(O)cc2O)c1-c1ccc(CN2CCOCC2)cc1 [Luminespib] (partner 0.01 µM); experiment: relative viability (nuclei count vs DMSO), 5 days (fraction); higher = more cells survive; details: first compound 0.08 µM
Outline: (§1)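 Lung cancer cell lines in 1536-well plates were dosed by pin tool the day after seeding, either with one drug alone or with a fixed anchor-drug dose plus five library-drug doses (not always all listed) in √10 steps. After 5 days, cells were fixed and their nuclei stained in one step (final 0.05% Triton X-100, 1% formaldehyde, 1 ug/ml Hoechst), then counted on 4× images. Relative viability is the nuclei count in treated wells divided by that in vehicle wells. Values are medians of duplicate plates.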

Row | Cell Line | relative viability
1 | EMC-BAC-2 | 1.01
2 | NCI-H2085 | 0.36
3 | NCI-H1666 | 1
4 | NCI-H596 | 0.92
5 | LK-2 | 0.231
6 | NCI-H2087 | 0.183
7 | SK-MES-1 | 0.416
8 | H3255 | 0.986
9 | COR-L23 | 0.635
10 | COR-L 105 | 0.75
11 | LOU-NH91 | 0.326
12 | ChaGo-K-1 | 0.486
13 | NCI-H2170 | 0.712
14 | NCI-H2405 | 0.367
15 | HOP-62 | 0.889
16 | HCC-44 | 0.941
17 | NCI-H522 | 1.22
18 | LU99A | 0.323
19 | BEN | 0.399
20 | HARA | 0.58
21 | SW 900 | 0.152
22 | NCI-H1563 | 0.504
23 | ABC-1 | 0.668

same assay, conditions: first compound 0.253 µM

Row | Cell Line | relative viability
24 | NCI-H2342 | 0.54
25 | NCI-H1623 | 0.402
26 | NCI-H727 | 0.348
27 | NCI-H1650 | 0.189
28 | NCI-H1993 | 0.711
29 | SW 1573 | 0.219
30 | NCI-H838 | 0.355
31 | LCLC-103H | 0.751
32 | NCI-H520 | 0.281
33 | NCI-H2126 | 0.836
34 | EMC-BAC-2 | 1.05
35 | NCI-H2085 | 0.194
36 | NCI-H1666 | 0.942
37 | NCI-H596 | 0.815
38 | LK-2 | 0.187
39 | NCI-H2087 | 0.161

Row | Cell Line | relative viability
40 | SK-MES-1 | 0.556
41 | H3255 | 0.761
42 | COR-L23 | 0.688
43 | COR-L 105 | 0.867
44 | LOU-NH91 | 0.293
45 | ChaGo-K-1 | 0.526
46 | NCI-H2170 | 0.508
47 | HOP-62 | 1.01
48 | HCC-44 | 1.12
49 | NCI-H522 | 1.07
50 | LU99A | 0.26
51 | BEN | 0.193
52 | HARA | 0.636
53 | SW 900 | 0.137
54 | NCI-H1563 | 0.541
55 | ABC-1 | 0.521

same assay, conditions: first compound 0.8 µM

Row | Cell Line | relative viability
56 | NCI-H2342 | 0.504
57 | NCI-H1623 | 0.472
58 | NCI-H727 | 0.786
59 | NCI-H1650 | 0.204
60 | NCI-H1993 | 0.737
61 | SW 1573 | 0.246
62 | NCI-H838 | 0.265
63 | LCLC-103H | 0.804
64 | NCI-H520 | 0.199
65 | NCI-H2126 | 0.841
66 | EMC-BAC-2 | 1.18
67 | NCI-H2085 | 0.22
68 | NCI-H1666 | 1.06
69 | NCI-H596 | 0.848
70 | LK-2 | 0.229
71 | NCI-H2087 | 0.213
72 | SK-MES-1 | 0.313

Row | Cell Line | relative viability
73 | H3255 | 0.806
74 | COR-L23 | 0.768
75 | COR-L 105 | 1.04
76 | LOU-NH91 | 0.343
77 | ChaGo-K-1 | 0.574
78 | NCI-H2170 | 0.697
79 | NCI-H2405 | 0.612
80 | HOP-62 | 1.11
81 | HCC-44 | 0.98
82 | NCI-H522 | 0.879
83 | LU99A | 0.334
84 | BEN | 0.522
85 | HARA | 0.57
86 | SW 900 | 0.153
87 | NCI-H1563 | 0.584
88 | ABC-1 | 0.438

same assay, conditions: first compound 2.53 µM

Row | Cell Line | relative viability
89 | NCI-H2342 | 0.391
90 | NCI-H1623 | 0.45
91 | NCI-H727 | 0.292
92 | NCI-H1650 | 0.186
93 | NCI-H1993 | 0.571
94 | SW 1573 | 0.194
95 | NCI-H838 | 0.193
96 | LCLC-103H | 0.602
97 | NCI-H520 | 0.206
98 | NCI-H2126 | 0.373
99 | EMC-BAC-2 | 0.805
100 | NCI-H2085 | 0.22
101 | NCI-H1666 | 0.876
102 | NCI-H596 | 0.812
103 | LK-2 | 0.177
104 | SK-MES-1 | 0.269

Row | Cell Line | relative viability
105 | H3255 | 0.529
106 | COR-L23 | 0.519
107 | COR-L 105 | 0.46
108 | LOU-NH91 | 0.27
109 | ChaGo-K-1 | 0.593
110 | NCI-H2170 | 0.485
111 | NCI-H2405 | 0.261
112 | HOP-62 | 0.793
113 | HCC-44 | 0.824
114 | NCI-H522 | 0.946
115 | LU99A | 0.237
116 | BEN | 0.177
117 | HARA | 0.627
118 | NCI-H1563 | 0.478
119 | ABC-1 | 0.55

same assay, conditions: first compound 8 µM

Row | Cell Line | relative viability
120 | NCI-H2342 | 0.608
121 | NCI-H1623 | 0.413
122 | NCI-H727 | 0.345
123 | NCI-H1650 | 0.194
124 | NCI-H1993 | 0.616
125 | SW 1573 | 0.206
126 | NCI-H838 | 0.332
127 | LCLC-103H | 0.64
128 | NCI-H520 | 0.211
129 | NCI-H2126 | 0.68
130 | EMC-BAC-2 | 0.787
131 | NCI-H2085 | 0.346
132 | NCI-H1666 | 1.21
133 | NCI-H596 | 0.801
134 | LK-2 | 0.167
135 | NCI-H2087 | 0.16
136 | SK-MES-1 | 0.304

Row | Cell Line | relative viability
137 | H3255 | 0.799
138 | COR-L23 | 0.636
139 | COR-L 105 | 0.663
140 | LOU-NH91 | 0.335
141 | ChaGo-K-1 | 0.501
142 | NCI-H2170 | 0.521
143 | NCI-H2405 | 0.385
144 | HOP-62 | 1.04
145 | HCC-44 | 1.1
146 | NCI-H522 | 0.88
147 | LU99A | 0.238
148 | BEN | 0.334
149 | HARA | 0.419
150 | SW 900 | 0.153
151 | NCI-H1563 | 0.522
152 | ABC-1 | 0.461

compound: Cc1cc([C@@H](C)Nc2ccccc2C(=O)O)c2nc(N3CCOCC3)cc(=O)n2c1 [AZD6482] + C[C@]1(O)C[C@@H](c2nc(-c3ccc4ccc(-c5ccccc5)nc4c3)c3c(N)nccn32)C1 [Linsitinib] (partner 1 µM); experiment: as above; details: first compound 0.08 µM
Outline: as §1

Row | Cell Line | relative viability
153 | NCI-H727 | 0.203
154 | EBC-1 | 0.559
155 | NCI-H1703 | 1.01
156 | NCI-H1993 | 0.759
157 | SW 1573 | 0.66
